According to patent US20210204568A1, “CBD-[…]” (THC PHARM GMBH THE HEALTH CONCEPT, priority 2014, published 2021):

Tested on: freely moving rats
Test: Electropharmacogram (EEG spectral power and physical activity) of freely moving rats after a CBD liquid formulation
Assay type: in vivo, rat
Description: FIGS. 1 to 3 show electropharmacograms from electroencephalography (EEG) of adult rats (>3 months old), wherein a dosage of 1 mg/kg (body weight) (FIG. 1), 5 mg/kg (body weight (FIGS. 2), and 15 mg/kg (body weight) (FIG. 3) cannabidiol was administered in the form of a liquid formulation.
Under general anesthesia, four depth electrodes were implanted into the prefrontal cortex, the hippocampus, the striatum, and the reticular formation of the rats. From the head of the rats, signals are wirelessly transmitted by radio to a computer. At the same time, the physical activity is measured.
The signals are subjected to a frequency analysis, for example using the fast Fourier transform (FFT), and the frequency content of a signal is determined. In the case of EEG data, the spectrum is divided into multiple regions, which historically are denoted by delta, theta, alpha and beta.
After the division into seven frequency ranges ((1) to (7), see FIGS. 1-3), the changes in the electric output after administration of a liquid formulation according to the invention comprising cannabidiol can be quantified and, taking the signals of the four brain regions into consideration, a specific change pattern, referred to as the “electropharmacogram (supra)”, is obtained (Dimpfel W., Pharmacological classification of herbal extracts by means of comparison to spectral EEG signatures induced by synthetic drugs in the freely moving rat. Journal of Ethnopharmacology 2013, 149, 583-589).
Time-dependent progression of the electric output (“spectral power”) (ordinate) in percent from the 45-minute long pre-drug base line (values) in four brain regions of freely moving rats in the presence of a vehicle (4 ml/kg). The frequency ranges are depicted as bars on the abscissa, specifically delta (1), theta (2), alpha1 (3), alpha2 (4), beta1a (5), beta1b (6) and gamma spectral power (7) from left to right, depending on the named brain region, The statistical significance is represented in stars compared to the control group (vehicle): *=p<0.05; **=p<0.01.

[1] = dosage of 1 mg/kg to 5 mg/kg, adult rats
[2] = high dosages, 5 or 15 mg/kg (body weight)

## C=C(C)[C@@H]1CCC(C)=C[C@H]1c1c(O)cc(CCCCC)cc1O [CBD, 2-[1R-3-methyl-6-(1-methylethenyl]--cyclohexen-1-yl]-5-pentyl-1,3-benzenediol]
[1]
  duration for which the specific increase in gamma spectral power can be observed: at least 4 hours
  gamma spectral power in the hippocampus: not at all
Dosage of 1 mg/kg to 5 mg/kg, adult rats, FIG. 1
  gamma spectral power within the striatum: increase
Dosage of 15 mg/kg, adult rats, FIG. 3
  gamma spectral power: no specific increase
[2]
  EEG pattern or electropharmacogram compared with drug classes: corresponds to that of certain antidepressants and analgesic drugs
  activity index: significant decrease
High dosages, 5 or 15 mg/kg (body weight), FIGS. 2 and 3
  effect according to the electropharmacogram: sedating effect
Lowest dosage, less than 5 mg/kg, preferably 1 mg/kg (body weight)
  effect according to the electropharmacogram: activating and invigorating effect
